Data reported in US5968526A, “T cell epitopes of the major allergens from Dermatophagoides (house dust mite)” (Immulogic Pharamaceutical Corporation, priority 1995, dated 1999).

Experiments:
Type in all cases: cell-based, human
[1] = system: T cell lines primed in vitro to Der f II; assay: secondary proliferation of Der f II-primed T cell lines (Examples IX, X, XI); conditions: for T cell response to Der p II peptides: Der f II primed, FIG. 11
Method: Experiments similar to those of Example V were performed to determine the T cell-reactive areas of the Der f II protein. For example, PBMC from house dust mite-allergic patient 384 were stimulated in vitro with purified recombinant Der f II and the T cell line was then challenged in the presence of x-irradiated (25,000 Rads) autologous Epstein-Barr virus transformed B cells as antigen presenting cells with various overlapping […]. The results of this proliferation assay indicate that T cells from this particular patient respond well to peptides DF II-1, DF II-2, DF II-3.1, DF II-4.5, DF II-15, DF II-16, and DF I-19.1 (data not shown).
The above procedure was followed with 10 patients, except in individual cases, T cell lines were primed by stimulating the patient PBMC with 20 μg/ml or 3 μg/ml purified native Der f II, and were assayed in the presence of x-irradiated (3500 Rads) autologous PBMC as antigen-presentingcells.
A study similar to that described in Example VII was carried out to determine the T cell cross-reactivity of the Der p II and Der f II proteins. T cells primed with the Der f II protein were challenged with various Der f II peptides and a set of substantially matching Der p II peptides. […]

[2] = system: T cell lines primed in vitro to Der p II; assay: secondary proliferation of Der p II-primed T cell lines (Examples VIII, X, XI); conditions: for T cell reactivity: overlapping Der p II peptides, FIG. 9; for T cell response: patient 348, native Der p II primed, data not shown
Procedure, shortened: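 PBMC from house dust mite-allergic patients primed in vitro with native or recombinant Der p II at 20 μg/ml (or recombinant at 3 μg/ml), with x-irradiated (3500 Rads) autologous PBMC as antigen-presenting cells. Lines then challenged with Der p II-derived peptides; proliferation expressed as S.I., ranked sum scoring top three responses 3, 2, 1.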

[3] = system: T cell lines primed in vitro to Der p I; assay: secondary proliferation of Der p I-primed T cell lines (Examples V, VII, XI); conditions: for T cell reactivity: overlapping Der p I peptides
Procedure, shortened: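 PBMC were primed with native or recombinant Der p I (10 or 20 μg/ml) for 7 days, then expanded with IL-2 and IL-4. Resting T cells (2×10^4) were cultured 3 days with irradiated autologous EBV-B cells or PBMC and titrated protein or peptides, then pulsed 16 h with 1 μCi ³H-thymidine. S.I. was peak-response CPM over medium-only CPM, with S.I. ≥2.0 scored positive.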

[4] = system: T cell cultures reactive with Der p I from house dust mite-allergic subjects; assay: secondary T cell proliferation assay, Group I (Der p I) overlapping and candidate/unique peptides; percent of T cell reactivity; conditions: patient 1733; highest S.I. ≥2.0 recorded
Description: To determine whether a peptide (candidate peptide) or a combination of candidate peptides are likely to comprise a sufficient percentage of the T cell reactivity of house dust mite protein allergens, to induce T cell nonresponsiveness in a substantial percentage of a population of individuals sensitive to house dust mite allergen, an algorithm can be used. In accordance with one such algorithm, a set of overlapping peptides is produced by systematically dividing the protein allergen(s) of interest into al least two overlapping peptide regions of desired lengths (e.g., of about 12-30 amino acid residues in length, preferably not longer than about 25 amino acid residues in length with about 5-15 amino acid residues of overlap). This division into peptide regions can be arbitrary, can be made according to an algorithm, or can be wholly or partially based on regions of house dust mite Group I and/or Group II protein allergens known to comprise at least one T cell epitope. Preferably, at least 50% of the entire house dust mite protein allergen sequence and more preferably, the entire house dust mite protein allergen sequence is divided into two or more peptides. A human T cell stimulation index is determined for each of the peptides in an in vitro T cell proliferation assay as described herein for each individual tested in a population of individuals sensitive to the protein antigen. For example both WO93/08279 and WO94/24281 disclose T cell studies with overlapping peptides derived from Der p I, Der p II, Der f I and Der f II. A candidate peptide or combination of candidate peptides is selected based, at least in part, on the mean human T cell stimulation index of the candidate peptide in the set of peptides tested and the positivity index of the candidate peptide in the set of peptides tested (see, FIGS. 3 and 4). The human T cell stimulation index for the candidate peptide(s) is summed. For each individual, the human T cell stimulation index for the candidate peptide(s) is divided by the sum of the human T cells stimulation indices of the remaining peptides in the set of peptides tested to determine a percent of T cell reactivity as shown below:
Alternatively, the presence of T cell epitopes in the candidate peptide dependent on amino acids residues in an overlapping peptide located at either the N-terminus or C-terminus of the candidate peptide in the amino acid sequence of the protein antigen, but which epitopes are not present in the candidate peptide can be considered in calculating the percent of T cell reactivity in the candidate peptide by use of the following formula: [formula]
In this formula, "NT flanking peptide" refers to a peptide which comprises amino acid residues which overlap with amino acid residues located at the N-terminus of the candidate peptide in the amino acid sequence of the protein antigen from which the peptide is derived; "CT flanking peptide" refers to a peptide which comprises amino acid residues which overlap with amino acid residues located a the C-terminus of the candidate peptide in the amino acid sequence of the protein antigen from which the peptide is derived. In this calculation stimulation indices for the candidate peptide, the N-terminal flanking peptide and the C-terminal flanking peptide are added and divided by the sum total of the stimulation indices for the entire set of overlapping peptides obtain a percent of T cell reactivity for the candidate peptide. If a combination of two or more candidate peptides is selected each of which contains amino acid residues which overlap, this calculation cannot be used to determine a percent of T cell reactivity for each candidate peptide separately. However, a total percent of T cell reactivity for the combination of candidate peptides can be obtained. In this situation, the stimulation indices for all of the candidate peptides which overlap is included in the calculation. […]

[5] = system: PBMC from mite-allergic patient; assay: primary T cell (PBMC) proliferation, mite-allergic patient, tritiated thymidine; conditions: medium 1071 ± 30
Method: Peripheral blood mononuclear cells (PBMC) were purified by Ficoll-Hypaque centrifugation of a peripheral blood specimen from mite-allergic patient and were assayed for proliferation in response to various antigens, i.e., affinity-purified Der p I, affinity purified Der p II, various Der p I and Der p II peptides. For assay, 5×10^4 PBMC were cultured in triplicate microwells for 7 days at 37° C. in the presence of various concentrations of antigen in 200 μl RPMI-1640 containing 5% human AB serum. Each well then received 1 μCi tritiated thymidine for 16 hours. The counts incorporated were collected onto glass fiber filters and processed for liquid scintillation counting. […] The CPM +/- standard deviation are shown. The stimulation index of each response (S.I.) is the ratio of the ^3 H-thymidine CPM incorporated by the cells in response to antigen divided by the ^3 H-thymidine CPM incorporated by cells in medium only. […] Thus, these peptides contain Der p I or Der p II T cell epitopes recognized by T cells from this particular allergic patient.

[6] = system: T cell lines primed in vitro with Der p II; assay: T cell proliferation with fine map and modified Group II peptides (Example XIV); conditions: FIGS. 32a-b
Method: Long term T cell lines were established by stimulation of 2×10^6 PBL/ml in bulk cultures of complete medium (RPMI-1640, 2 mM L-glutamine, 100 U/ml penicillin/streptomycin, 5×10^-5 M 2-mercaptoethanol, and 10 mM HEPES supplemented with 5% heat inactivated human AB serum) with 30 μg/ml of purified native Der p I or Der p II for 5-6 days at 37° C. in a humidified 5% CO2 incubator to select for house dust mite protein allergen reactive T cells. This amount of priming antigen was determined to be optimal for the activation of T cells from house dust mite allergic patients. Viable cells were purified by LSM centrifugation and cultured in complete medium supplemented with 5 units recombinant human IL-2/ml and 5 units recombinant human IL-4/ml for up to three weeks until the cells no longer responded to lymphokines and were considered "rested". The ability of the T cells to proliferate to selected peptides, purified Der p I or Der p II, or positive (PHA) controls or negative controls (medium only) was then assessed. For assay, 2×10^4 rested cells were restimulated in the presence of 2×10^4 autologous Epstein-Barr virus (EBV)-transformed B cells (prepared as described below) (gamma-irradiated with 25,000 RADS) or with 5×10^4 autologous PBMs (gamma-irradiated with 3500 RADS), with 2-50 μg/ml of purified native Der p I or Der p II in a volume of 200 μl complete medium in duplicate or triplicate wells in 96-well round bottom plates for 3 days. Each well then received 1 μCi tritiated thymidine for 16-20 hours. The counts incorporated were collected onto glass fiber filter mats and processed for liquid scintillation counting. […] The titrations were used to optimize the dose of peptides in T cell assays.
The maximum response in a titration of each peptide is expressed as the stimulation index (S.I.). The S.I. is the counts per minute (CPM) incorporated by cells in response to peptide, divided by the CPM incorporated by cells in medium only. […] The positive results were used in calculating mean stimulation indices for each peptide for the individual patient tested.
The above procedure was followed with 18 patients in the studies using peptides derived from Der p I and Der f I (FIGS. 31a-b), and 21 patients in the studies with Der p II peptides (FIGS. 32a-b). Individual patient results were used in calculating the mean S.I. for each peptide if the patient responded to the Der p I or Der p II protein at an S.I. of 2.0 or greater and the patient responded to at least one peptide derived from a house dust mite allergen at an S.I. f 2.0 or greater. A summary of positive experiments from the patients tested is shown in FIGS. 32a and 32b and FIGS. 33a and 33b. The bars represent the positivity index. […] In parenthesis above each bar are the mean stimulation indices for each peptide or protein for the group of patients tested.
Autologous EBV-transformed cell lines were γ-irradiated with 25,000 Rad and used as antigen presenting cells in secondary proliferation assays and secondary bulk stimulations. These EBV-transformed cell lines were made by incubating 5×10^6 PBL with 1 ml of B-59/8 Marmoset cell line (ATCC CRL1612, American Type Culture Collection, Rockville, Md.) conditioned medium in the presence of 1 μg/ml phorbol 12-myristate 13-acetate (PMA) at 37° C. for 60 minutes in 12×75 mm polypropylene round-bottom Falcon snap cap tubes (Becton Dickinson Labware, Lincoln Park, N.J.). These cells were then diluted to 1.25×10^6 cells/ml in RPMI-1640 as described above except supplemented with 10% heat-inactivated fetal bovine serum and cultured in 200 μl aliquots in flat bottom culture plates until visible colonies were detected. They were then transferred to larger wells until the cell lines were established.

Question: For “DF II-19.1: Der f II peptide (VVTVKLVGDNGVLACAIATHAKIRD)”, which T cell reactivity ([1]; overlapping Der f II peptides, 10 positive experiments, FIG. 10) is on record?
Answer: significant areas of T cell reactivity

Question: And the “T cell response to Der f II peptides” value ([2]; Der p II primed, 26 positive experiments, FIG. 12)?
Answer: respond significantly

Question: Which results are given for “DP I-6.1: Der p I peptide (YPPNANKIREALAQTHSAIAVIIG)”?
Answer: T cell reactivity ([3]; 33 positive experiments): significant regions of T cell reactivity; T cell stimulation index (S.I.) [4]: 2.1

Question: For “DP I-7.1: Der p I peptide (AQTHSAIAVIIGIKDLDAFRHYDGRT)”, which T cell reactivity ([3]; 33 positive experiments) is on record?
Answer: significant regions of T cell reactivity

Question: And the “T cell stimulation index (S.I.)” value [4]?
Answer: 2.2

Question: For “DP I-9: Der p I peptide (IIQRDNGYQPNYHAVNIVGYSNA)”, which T cell reactivity ([3]; 33 positive experiments) is on record?
Answer: significant regions of T cell reactivity

Question: And the “T cell stimulation index (S.I.)” value [4]?
Answer: 2.4

Question: Which results are given for “DP I-12.1: Der p I peptide, native sequence (ELVDCASQHGCHGDTIPRGIE)”?
Answer: difference in mean S.I. or percentage of positive responses, original vs additional (native sequence) peptides ([3]; DP I-11/12 vs DP I-11.1/12.1): no significant difference; T cell stimulation index (S.I.) [4]: 2.2

Question: What does the source list for “DP I-16: Der p I peptide (HAVNIVGYSNAQGVDYWIVRNS)”?
Answer: T cell reactivity ([3]; 33 positive experiments): significant regions of T cell reactivity; T cell stimulation index (S.I.) [4]: 2.0

Question: Which “T cell stimulation index (S.I.)” value [4] does the source give for “DP I-17: Der p I peptide (GDNGYGYFAANIDLMMIEEYPYVVIL)” here?
Answer: 0

Question: Which results are given for “DP I-22.2: Der p I peptide (VAATESAYLAHRNQSLDLAEQELVD)”?
Answer: T cell response to selected Der p I peptides ([3]; 33 positive experiments, FIG. 13): respond significantly; T cell stimulation index (S.I.) [4]: 3.1

Question: Which “T cell response to Der p II peptides” value ([1]; 10 positive experiments) does the source give for “DP II-1: Der p II peptide (DQVDVKDCANHEIKKVLVPG)” here?
Answer: respond significantly

Question: What about the T cell reactivity ([2]; 26 positive experiments) of the same substance?
Answer: significant T cell reactivity

Question: And the T cell response [2]?
Answer: responds well

Question: With “DP II-4: Der p II peptide (QLEAVFEANQNTKTAKIEIKASIDG)” as the substance, how does the “T cell response to Der p II peptides” value ([1]; 10 positive experiments) read?
Answer: respond significantly

Question: And the “T-cell reactivity (DPII-22 series development)” value ([2]; Der p II T-cell map and analogs)?
Answer: high T-cell reactivity

Question: What about the T cell reactivity ([2]; 26 positive experiments) of the same substance?
Answer: significant T cell reactivity

Question: What about the “CPM ± S.D.” value ([5]; 10 μg/ml) of the same substance?
Answer: 2126 ± 25 CPM

Question: What about the “CPM ± S.D.” value ([5]; 30 μg/ml) of the same substance?
Answer: 1979 ± 94 CPM

Question: What about the “CPM ± S.D.” value ([5]; 100 μg/ml) of the same substance?
Answer: 2314 ± 116 CPM

Question: What does the source list for “DP II-7: Der p II peptide (CPLVKGQQYDIKYTWNVPKIAPKSENV)”?
Answer: T cell response to Der p II peptides ([1]; 10 positive experiments): respond significantly; T cell reactivity ([2]; 26 positive experiments): significant T cell reactivity; T cell response [2]: responds well

Question: Which results are given for “DP II-25: Der p II peptide (TVKVMGDDGVLACAIATHAKIRD)”?
Answer: stimulation index / response to selected Der p II peptides ([1]; 10 patients, FIG. 18a): highest stimulation index; T cell response, Group II peptides [6]: positive T cell studies
